This series relates to platelet count. The series is described as follows: Platelet count (thrombocytopenia / platelet protection) after administration of liposomal formulations or free drug. The note with it: liposomal formulations at various doses or free drug, FIG. 7F. It is filed as in vivo, Female B6D2F1/J mice. As for the experimental part:
Female B6D2F1/J mice were purchased from Jackson Laboratory and acclimated 7 days prior to study start. Mice were caged in autoclaved Allentown ventilated caging at a capacity of 3 animals/cage during the course of the experiment. Cages were changed bi-weekly. Environmental enrichment that was supplied for cages were Nestlets from Ancare, transparent tinted polycarbonate Mouse Igloos from Bio-Serv on Envigo 7097¼″ corn cob bedding. All enrichment was added to the cage prior to the cages being autoclaved. Mice were fed Envigo Teklad Global Rodent Diet 2018. The rodent food was kept in the hoppers of the wire lids and was changed bi-weekly. Reverse osmosis water was supplied through Avidity Science automatic watering valves at a flow rate of 25-50 ml/min. Environmental control of the lights and monitoring of temperature, humidity and airflow was done by WatchDog. Light cycles in the animal holding rooms was set for 12 hours on and 12 hours off. Temperature, humidity and airflow were maintained and controlled by BCCRC facilities.
Mice were injected with the required volume to administer the prescribed dose (10 mg/kg) to the animals based on individual mouse weights using a 28 G needle. The injection volume was 200 μL/20 g mouse. The mice were briefly (less than 30 sec.) restrained during i.v. injections. […]

Turning to `CN(C)CC[C@H](CSc1ccccc1)Nc1ccc(S(=O)(=O)NC(=O)c2ccc(N3CCN(Cc4ccccc4-c4ccc(Cl)cc4)CC3)cc2)cc1[N+](=O)[O-]` [Compound 7], the “tolerability (platelet count)” value is listed as “well tolerated at the tested doses”.
